According to US10391081B2, “FGFR gatekeeper mutant gene and drug targeting same” (CHUGAI SEIYAKU KABUSHIKI KAISHA, priority 2013, dated 2019):

Target: T1, TEL-fused FGFR2 V564F mutant polypeptide (Homo sapiens, UniProt P21802, V564F)
T1 construct: expressed in transfected cells; for A6/A7 grown as subcutaneous tumours in BALB/c nude mice
Test: In vitro cell proliferation inhibition (WST-8), Ba/F3 strain stably expressing TEL-fused FGFR2 V564F mutant
Type: cell-based
Conditions: cultured four days, FIG. 3
Description: A polynucleotide encoding the dimerization domain of wild-type TEL (SEQ ID NO: 33) and a polynucleotide encoding the intracellular domain of wild-type FGFR2 (SEQ ID NO: 1) were fused by a PCR-based site-directed mutagenesis method to produce a polynucleotide (SEQ ID NO: 11) encoding the TEL-fused wild-type FGFR2 (SEQ ID NO: 34). Using the polynucleotide encoding the TEL-fused wild-type FGFR2 as a template, a polynucleotide (SEQ ID NO: 12) encoding the TEL-fused FGFR2 V564F mutant (SEQ ID NO: 35) was prepared by a PCR-based site-directed mutagenesis method.

T1 sequence (P21802 with tags, fused parts or gaps V564F): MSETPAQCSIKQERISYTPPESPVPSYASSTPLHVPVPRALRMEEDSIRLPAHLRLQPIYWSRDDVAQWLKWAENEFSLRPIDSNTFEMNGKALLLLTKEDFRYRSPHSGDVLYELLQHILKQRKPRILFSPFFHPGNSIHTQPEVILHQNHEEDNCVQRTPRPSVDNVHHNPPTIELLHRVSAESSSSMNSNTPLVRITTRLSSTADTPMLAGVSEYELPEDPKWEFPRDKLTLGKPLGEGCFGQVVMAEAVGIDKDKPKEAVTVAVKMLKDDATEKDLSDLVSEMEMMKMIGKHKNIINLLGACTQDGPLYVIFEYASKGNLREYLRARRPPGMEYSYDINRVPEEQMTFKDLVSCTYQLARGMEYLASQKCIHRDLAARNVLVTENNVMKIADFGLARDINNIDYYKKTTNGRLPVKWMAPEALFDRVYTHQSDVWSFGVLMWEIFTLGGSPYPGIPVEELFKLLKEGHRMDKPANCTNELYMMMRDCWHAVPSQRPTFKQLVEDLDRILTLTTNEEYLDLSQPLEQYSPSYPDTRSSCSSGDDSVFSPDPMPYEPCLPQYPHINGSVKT

Row | cell proliferation-inhibiting activity compared to the strain stably expressing TEL-fused wild-type FGFR2 | Structure (SMILES)
1 | greatly weakened | COc1cc2c(Oc3ccc4[nH]c(C)cc4c3F)ncnc2cc1OCCCN1CCCC1 [E, cediranib]
2 | greatly weakened | CCN1CCN(c2ccc(Nc3cc(N(C)C(=O)Nc4c(Cl)c(OC)cc(OC)c4Cl)ncn3)cc2)CC1 [Compound D, BGJ-398]
